What all share (assay type): in vivo
For one assay, the system named is Myzus persicae. The assay is described as follows: Myzus persicae test (spray treatment of infested cabbage leaves). Conditions: single active compound; for Kill in % after 6d: 0.8 g/ha; for Kill in % after 1d: 4 g/ha. The protocol: (§1) Solvents: 78 parts by weight of acetone • • 1.5 parts by weight of dimethylformamide
(§2) Emulsifier: 0.5 part by weight of alkylaryl polyglycol ether
(§3) To produce a suitable preparation of active compound, 1 part by weight of active compound is mixed with the stated amount of solvent and emulsifier, and the concentrate is diluted with emulsifier-containing water to the desired concentration.
Cabbage leaves (Brassica oleracea) which are heavily infested by the green peach aphid (Myzus persicae) are treated by spraying with the active compound preparation of the desired concentration.
After the desired period of time, the kill in % is determined. 100% means that all of the aphids have been killed; 0% means that none of the aphids have been killed. The kill rates determined are entered into Colby's formula (see above).

Assay [1] deals with Phaedon cochleariae larvae. The assay is described as follows: Phaedon cochleariae larvae test (sprayed cabbage leaves). The following applies: single active compound. The protocol:
Phaedon cochleariae Larvae Test
as §1, §2, §3
Cabbage leaves (Brassica oleracea) are treated by spraying with the active ingredient formulation of the desired concentration and populated with larvae of the mustard beetle (Phaedon cochleariae) while the leaves are still moist.
After the desired period of time, the kill in % is determined. 100% means that all beetle larvae have been killed; 0% means that none of the beetle larvae have been killed. The kill rates determined are entered into Colby's formula (see above).

The test system of a further assay is Spodoptera frugiperda. Put plainly: Spodoptera frugiperda test (sprayed cabbage leaves). The following applies: 100 g/ha, single active compound. The protocol:
Spodoptera frugiperda Test
as §1, §2, §3
Cabbage leaves (Brassica oleracea) are treated by being sprayed with the preparation of active compound of the desired concentration and are populated with larvae of the armyworm (Spodoptera frugiperda) while the leaves are still moist.
After the desired period of time, the kill in % is determined. 100% means that all caterpillars have been killed; 0% means that none of the caterpillars have been killed. The kill rates determined are entered into Colby's formula (see above).

The next assay relates to Tetranychus urticae. Put plainly: Tetranychus urticae test (OP-resistant/spray treatment of bean leaf discs). Conditions: single active compound. The protocol:
Tetranychus urticae Test (OP-Resistant/Spray Treatment)
as §1, §2, §3
Discs of bean leaves (Phaseolus vulgaris) which are infested by all stages of the greenhouse red spider mite (Tetranychus urticae) are sprayed with the active compound preparation of the desired concentration.
After the desired period of time, the effect in % is determined. 100% means that all of the spider mites have been killed; 0% means that none of the spider mites have been killed.

Turning to `O=C1C=C(N(CCF)Cc2ccc(Cl)nc2)CO1` [compound (I-4), 4-{[(6-chloropyrid-3-yl)methyl](2-fluoroethyl)amino}furan-2(5H)-one], the “Kill in % after 6d” value in the assay on Myzus persicae, in the assay with Spodoptera frugiperda and in the assay with Tetranychus urticae (4 g/ha) was 0% throughout. Further, in the assay with Myzus persicae, the “Kill in % after 1d” value is 20%. The “Kill in % after 2d” value is 33% in assay [1] (100 g/ha) and 0% in the assay on Tetranychus urticae (4 g/ha).

Consider `O=C1C=C(N(Cc2ccc(Cl)nc2)CC(F)F)CO1` [compound (I-5), 4-{[(6-chloropyrid-3-yl)methyl](2,2-difluoroethyl)amino}furan-2(5H)-one], for which the “Kill in % after 6d” value with Myzus persicae came to 30%; with Tetranychus urticae (4 g/ha), 0%. Besides, the “Kill in % after 2d” value (in assay [1] (20 g/ha); in the assay with Tetranychus urticae (4 g/ha); with Tetranychus urticae (20 g/ha)) was 0% throughout.

For `CN(Cc1cnc(Cl)c(F)c1)C1=CC(=O)OC1` [compound (I-6), 4-{[(6-chloro-5-fluoropyrid-3-yl)methyl](methyl)amino}furan-2(5H)-one], the “Kill in % after 6d” value (in assay [1] (20 g/ha); with Tetranychus urticae (4 g/ha)) was 0% throughout. Further, in the assay on Tetranychus urticae (4 g/ha), the “Kill in % after 2d” value amounted to 0%.

For the compound `CCC(C)(C)C(=O)OC1=C(c2ccc(Cl)cc2Cl)C(=O)OC12CCCCC2` [spirodiclofen, reference compound], in the assay on Myzus persicae, the “Kill in % after 1d” value is listed as 0%.

On to `Cc1cc(C)c(C2=C(OC(=O)CC(C)(C)C)C3(CCCC3)OC2=O)c(C)c1` [spiromesifen, reference compound], for which the “Kill in % after 1d” value in the assay with Myzus persicae is recorded as 0%. Moreover, in the assay with Tetranychus urticae (4 g/ha), the “Kill in % after 2d” value was 20% and the “Kill in % after 6d” value is 70%.

As for spirotetramat [reference compound], the “Kill in % after 6d” value in the assay on Myzus persicae was 20%; in assay [1] (20 g/ha), 0%; in the assay with Spodoptera frugiperda, 0%. Besides, the “Kill in % after 2d” value in assay [1] (20 g/ha) is reported as 0%; in assay [1] (100 g/ha), 50%; in the assay with Tetranychus urticae (4 g/ha) it was 20%; with Tetranychus urticae (20 g/ha), 70%.

The values are drawn from patent publication US20120094829A1, “Active Compound Combinations Having Insecticidal and Acaricidal Properties” (BAYER CROPSCIENCE AG, priority 2009, published 2012).
